Here are results for 23 molecules from patent US12110293B2, “Substituted triazolo quinoxaline derivatives” (GRÜNENTHAL GMBH, priority 2018, dated 2024).

In the test the target is T1, glucocorticoid receptor (Homo sapiens, UniProt P04150).
T1 construct: expressed in transfected cells
T1 sequence (P04150 524-758 limits assumed): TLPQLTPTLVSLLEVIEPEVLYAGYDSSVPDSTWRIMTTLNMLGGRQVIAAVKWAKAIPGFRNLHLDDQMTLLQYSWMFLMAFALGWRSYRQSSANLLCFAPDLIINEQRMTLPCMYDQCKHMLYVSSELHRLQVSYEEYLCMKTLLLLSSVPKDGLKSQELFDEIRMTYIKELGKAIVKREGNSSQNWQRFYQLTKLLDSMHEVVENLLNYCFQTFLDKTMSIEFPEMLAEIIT
The test is described as follows: Agonistic mode of action on the glucocorticoid receptor (CHO-Gal4/GR luciferase reporter cell line). The test is classed as cell-based. The following applies: range class observed in the agonistic assay or the antagonistic assay (CHO-Gal4/GR reporter cells); table does not say which mode applies per example. In short, it runs like this: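 Agonism measured as dose-dependent luciferase luminescence (FLIPR Tetra) from a GAL4-UAS reporter driven by GAL4 DBD fused to GR ligand-binding domain in stable CHO cells. Eight half-log doses, 10 μM to 0.003 μM final in 0.5% DMSO, quadruplicate, on cells seeded 24 h earlier at 5000/well; EC50 derived.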
Background: In a reporter assay the amount or activity of a reporter protein is the signal.
Regarding `Cc1nnc2n1-c1c(cc(F)c(-c3cccc4c3ccn4C3CC3)c1C(F)F)NC2(C)C` [Example 514, 8-(1-Cyclopropyl-1H-indol-4-yl)-9-(difluoro-methyl)-7-fluoro-1,4,4-trimethyl-5H-[1,2,4]triazolo[4,3-a]quinoxaline], the IC50 or EC50 (agonist or antagonist mode not specified) lay within 100 to 1000 nM.

On to `Cc1nnc2n1-c1c(cc(F)c(-c3cc(F)cc4cc[nH]c34)c1C(F)F)NC2(C)C` [Example 515, 9-(Difluoro-methyl)-7-fluoro-8-(5-fluoro-1H-indol-7-yl)-1,4,4-trimethyl-5H-[1,2,4]triazolo[4,3-a] quinoxaline], for which the IC50 or EC50 (agonist or antagonist mode not specified) fell in the range of 100 to 1000 nM.

Molecule `Cc1nnc2n1-c1c(cc(F)c(-c3cc(F)cc4cc[nH]c34)c1C(F)(F)F)NC2(C)C` [Example 516, 7-Fluoro-8-(5-fluoro-1H-indol-7-yl)-1,4,4-trimethyl-9-(trifluoro-methyl)-5H-[1,2,4]triazolo[4,3-a] quinoxaline] gave an IC50 or EC50 (agonist or antagonist mode not specified) of 100 to 1000 nM.

Molecule `COc1cc2c(c(C(F)(F)F)c1-c1cc(F)cc3c1ccn3C)-n1c(C)nnc1C(C)(C)N2` [Example 517, 8-(6-Fluoro-1-methyl-1H-indol-4-yl)-7-methoxy-1,4,4-trimethyl-9-(trifluoromethyl)-5H-[1,2,4]triazolo [4,3-a]quinoxaline] gave an IC50 or EC50 (agonist or antagonist mode not specified) of 100 to 1000 nM.

With `Cc1c(-c2cc(F)cc3c2ccn3C)c(F)cc2c1-n1c(C)nnc1C(C)(C)N2` [Example 518, 7-Fluoro-8-(6-fluoro-1-methyl-1H-indol-4-yl)-1,4,4,9-tetramethyl-5H-[1,2,4]triazolo[4,3-a]quinoxaline], the IC50 or EC50 (agonist or antagonist mode not specified) was under 100 nM.

`Cc1c(-c2cc(F)cc3c2ccn3C)c(Cl)cc2c1-n1c(C)nnc1C(C)(C)N2` [Example 519, 7-Chloro-8-(6-fluoro-1-methyl-1H-indol-4-yl)-1,4,4,9-tetramethyl-5H-[1,2,4]triazolo[4,3-a]quinoxaline] yielded an IC50 or EC50 (agonist or antagonist mode not specified) of under 100 nM.

For the molecule `Cc1cc2c(c(F)c1-c1cc(F)cc3c1ccn3C)-n1c(C)nnc1C(C)(C)N2` [Example 520, 9-Fluoro-8-(6-fluoro-1-methyl-1H-indol-4-yl)-1,4,4,7-tetramethyl-5H-[1,2,4]triazolo[4,3-a]quinoxaline], the IC50 or EC50 (agonist or antagonist mode not specified) lay within 100 to 1000 nM.

Take `Cc1nnc2n1-c1c(cc(F)c(-c3cc(F)cc4c3ccn4C)c1C(F)F)NC2(C)C` [Example 521, 9-(Difluoro-methyl)-7-fluoro-8-(6-fluoro-1-methyl-1H-indol-4-yl)-1,4,4-trimethyl-5H-[1,2,4]triazolo [4,3-a]quinoxaline]: the IC50 or EC50 (agonist or antagonist mode not specified) was under 100 nM.

With `Cc1nnc2n1-c1c(ccc(-c3cc(F)cc4c3ccn4C)c1C(F)(F)F)NC2(C)C` [Example 522, 8-(6-Fluoro-1-methyl-1H-indol-4-yl)-1,4,4-trimethyl-9-(trifluoro-methyl)-5H-[1,2,4]triazolo[4,3-a] quinoxaline], the IC50 or EC50 (agonist or antagonist mode not specified) was in the range of 100 to 1000 nM.

For the molecule `COc1cc2c(c(C(F)(F)F)c1-c1cccc3c1ccn3C1CC1)-n1c(C)nnc1C(C)(C)N2` [Example 523, 8-(1-Cyclopropyl-1H-indol-4-yl)-7-methoxy-1,4,4-trimethyl-9-(trifluoromethyl)-5H-[1,2,4]triazolo[4,3-a]quinoxaline], the IC50 or EC50 (agonist or antagonist mode not specified) was 100 to 1000 nM.

Turning to `Cc1c(-c2ccc(F)c3[nH]ncc23)c(F)cc2c1-n1c(C)nnc1C(C)(C)N2` [Example 524, 7-Fluoro-8-(7-fluoro-1H-indazol-4-yl)-1,4,4,9-tetramethyl-5H-[1,2,4]triazolo[4,3-a]quinoxaline], the IC50 or EC50 (agonist or antagonist mode not specified) lay within 100 to 1000 nM.

For `Cc1c(-c2ccc(Cl)c3c2ccn3S(C)(=O)=O)c(F)cc2c1-n1c(C)nnc1C(C)(C)N2` [Example 525, 8-(7-Chloro-1-methylsulfonyl-1H-indol-4-yl)-7-fluoro-1,4,4,9-tetramethyl-5H-[1,2,4]triazolo [4,3-a]quinoxaline], the IC50 or EC50 (agonist or antagonist mode not specified) is 100 to 1000 nM.

`Cc1nnc2n1-c1c(ccc(-c3cc(F)cc4c3ccn4S(C)(=O)=O)c1C(F)F)NC2(C)C` [Example 526, 9-(Difluoro-methyl)-8-(6-fluoro-1-methylsulfonyl-1H-indol-4-yl)-1,4,4-trimethyl-5H-[1,2,4] triazolo[4,3-a]quinoxaline] registered an IC50 or EC50 (agonist or antagonist mode not specified) of 100 to 1000 nM.

`Cc1c[nH]c2c(-c3ccc4c(c3C(F)F)-n3c(C)nnc3C(C)(C)N4)cc(F)cc12` [Example 527, 9-(Difluoro-methyl)-8-(5-fluoro-3-methyl-1H-indol-7-yl)-1,4,4-trimethyl-5H-[1,2,4]triazolo [4,3-a]quinoxaline] displayed an IC50 or EC50 (agonist or antagonist mode not specified) of under 100 nM.

Molecule `Cc1nnc2n1-c1c(ccc(-c3cccc4c3ccn4S(C)(=O)=O)c1C(F)F)NC2(C)C` [Example 528, 9-(Difluoro-methyl)-1,4,4-trimethyl-8-(1-methylsulfonyl-1H-indol-4-yl)-5H-[1,2,4]triazolo [4,3-a]quinoxaline] returned an IC50 or EC50 (agonist or antagonist mode not specified) of 100 to 1000 nM.

In turn, `Cc1nnc2n1-c1c(cc(F)c(-c3ccc(Cl)c4[nH]ccc34)c1F)NC2(C)C` [Example 529, 8-(7-Chloro-1H-indol-4-yl)-7,9-difluoro-1,4,4-trimethyl-5H-[1,2,4]triazolo[4,3-a]quinoxaline] gave an IC50 or EC50 (agonist or antagonist mode not specified) of 100 to 1000 nM.

The molecule `Cc1nnc2n1-c1c(cc(F)c(-c3ccc(Cl)c4[nH]ccc34)c1C(F)(F)F)NC2(C)C` [Example 530, 8-(7-Chloro-1H-indol-4-yl)-7-fluoro-1,4,4-trimethyl-9-(trifluoromethyl)-5H-[1,2,4] triazolo[4,3-a]quinoxaline] yielded an IC50 or EC50 (agonist or antagonist mode not specified) of 100 to 1000 nM.

Take `Cc1nnc2n1-c1c(cc(F)c(-c3ccc(C#N)c4[nH]ccc34)c1C(F)(F)F)NC2(C)C` [Example 531, 4-[7-Fluoro-1,4,4-trimethyl-9-(trifluoromethyl)-5H-[1,2,4]triazolo[4,3-a]quinoxalin-8-yl]-1H-indole-7-carbonitrile]: the IC50 or EC50 (agonist or antagonist mode not specified) fell in the range of 100 to 1000 nM.

Turning to `Cc1nnc2n1-c1c(cc(F)c(-c3cc(F)cc4c3ccn4C)c1C(F)(F)F)NC2(C)C` [Example 532, 7-Fluoro-8-(6-fluoro-1-methyl-1H-indol-4-yl)-1,4,4-trimethyl-9-(trifluoromethyl)-5H-[1,2,4] triazolo[4,3-a]quinoxaline], the IC50 or EC50 (agonist or antagonist mode not specified) is under 100 nM.

On to `Cc1c(-c2cccc3c2ccn3C2CC2)c(Cl)cc2c1-n1c(C)nnc1C(C)(C)N2` [Example 533, 7-Chloro-8-(1-cyclopropyl-1H-indol-4-yl)-1,4,4,9-tetramethyl-5H-[1,2,4]triazolo[4,3-a] quinoxaline], for which the IC50 or EC50 (agonist or antagonist mode not specified) is under 100 nM.

`Cc1c(-c2ccc(C#N)c3[nH]ccc23)c(F)cc2c1-n1c(C)nnc1C(C)(C)N2` [Example 534, 4-(7-Fluoro-1,4,4,9-tetramethyl-5H-[1,2,4]triazolo[4,3-a]quinoxalin-8-yl)-1H-indole-7-carbonitrile] returned an IC50 or EC50 (agonist or antagonist mode not specified) of 100 to 1000 nM.

`COc1cc(-c2c(F)cc3c(c2C(F)(F)F)-n2c(C)nnc2C(C)(C)N3)c2ccn(S(C)(=O)=O)c2c1` [Example 536, 7-Fluoro-8-(6-methoxy-1-methylsulfonyl-1H-indol-4-yl)-1,4,4-trimethyl-9-(trifluoro-methyl)-5H-[1,2,4]triazolo [4,3-a]quinoxaline] yielded an IC50 or EC50 (agonist or antagonist mode not specified) of 100 to 1000 nM.

The molecule `COc1cc(-c2c(F)cc3c(c2C)-n2c(C)nnc2C(C)(C)N3)c2ccn(S(C)(=O)=O)c2c1` [Example 537, 7-Fluoro-8-(6-methoxy-1-methylsulfonyl-1H-indol-4-yl)-1,4,4,9-tetramethyl-5H-[1,2,4] triazolo[4,3-a]quinoxaline] gave an IC50 or EC50 (agonist or antagonist mode not specified) of 100 to 1000 nM.
